Assay results reported in paper PMC7093532, “Iron bioavailability from bouillon fortified with a novel ferric phytate compound: a stable iron isotope study in healthy women (part II)” (Scientific Reports, 2020).
Where two headings read alike, the source gives them in different places.

Columns and labels:
[1] = dogs, cited from earlier work
[2] = cited from earlier work
[3] = cited from earlier work; remark: listed apart in the source
[4] = Stable iron isotope absorption study in healthy adult women (erythrocyte incorporation of oral isotopic labels)
Description: The human study was a controlled, single blind (to the subjects), single center trial. Healthy adult women (n = 23) consumed 6 different types of investigational products in random order with a cross-over design: bouillon with and without corn porridge fortified either with [^58Fe]-PA-HCP, [^54Fe]-SO4, or [^57Fe]-PP, resulting in 6 different test meal sequences. The sequences built up a Partial Williams Latin square, balanced for first order carry over. The experimental phase lasted for a period of 33 days.
The human study was conducted between December 2016 and February 2017 at the Laboratory of Human Nutrition of the ETH Zurich. […] The study procedure was explained in detail and written informed consent was obtained. An interview was conducted, weight and height were measured and a venous blood sample was drawn to assess whether participants fulfilled inclusion and exclusion criteria (Hb, Ht, number of erythrocytes, PF). […] The labelled iron-fortified test meals were administered on days 1, 2, 3, 17, 18 and 19 (Fig. 3). Test meals were administered between 07:00 and 09:30 after an overnight fast. The participants consumed the complete test meal and a glass of 300 mL ultrapure water in the presence of the investigators. […] Quantitative consumption of the investigational product was ensured by washing the glass test meal container 2 times with 10 mL of ultrapure water. After consuming the test meals, participants were not allowed to eat or drink for 3 h.
Venous blood samples were collected after an overnight fast on day 1 (baseline), day 17 and day 33 (endpoint) to determine iron status and iron absorption from the test meals. Iron absorption was determined by quantifying the incorporation of oral stable isotopic labels into erythrocytes. Adverse events and concomitant medication were inquired and documented during the entire study. All experiments were performed in accordance with relevant guidelines and regulations. The study was approved by the ethics Committee of the Canton Zurich, Switzerland (KEK-ZH-Nr. 2016–01472). Participants gave informed written consent before participation in the study and received a symbolic reimbursement at the end of the trial. The study was registered at clinicaltrials.gov as NCT02993835 on December 15, 2016.
The bouillon meal was prepared from 300 g ultrapure water and 7 g commercial vegetable bouillon powder (Maggi Gemüse Bouillon, Maggi, Singen, Germany) per serving. The bouillon contained iodized salt, dehydrated vegetables (onion, carrot, spinach, celery), yeast extracts, white sugar, potato starch, vegetable extracts (carrot, leek, onion, garlic), sunflower seed oil, natural flavours, spices (curcumin, paprika, nutmeg), chervil, caramelized sugar and natural celery flavour. […] The inhibitory meal was a corn porridge, prepared from 300 g ultrapure water, 7 g commercial vegetable bouillon powder and 50 g whole corn flour per serving (Farina per polenta integrale, Paolo Bassetti, Pianezzo, Switzerland) to achieve an absorption-inhibiting PA:Fe molar ratio of 5.0[31],[40], representative of a moderately inhibitory meal. Whole corn flour has a phytic acid content of about 1–2%, which is higher than in wheat (0.9%) and rice (0.7%)[12],[41]. Test meals were prepared the day before each feeding and stored in individual portions in a refrigerator overnight. On the day of administration, test meals were heated in a microwave oven. The pre-weighed vials containing the labeled iron compounds were added to the test meals and were rinsed 2 times with 2 mL of ultrapure water. […] Bouillon meals further contained 0.1 mg intrinsic iron and the inhibitory meals contained 0.8 mg Fe from the corn flour.

[5] = system: Caco-2 cells
Description: In parallel to the in vivo human study, in vitro bioaccessibility of the iron compounds was assessed using a Caco-2 cell assay by assessing the amount of ferritin formed in response to the exposure to different digests. Iron fortified bouillon and bouillon with whole corn flour were prepared following the same procedure reported for the human study using [^58Fe]-PA-HCP, [^57Fe]-PP and [^54Fe]-SO4 at the level of 2.1 mg iron/3.3 g of bouillon mass through dry mixing. The resulting fortified bouillon mass was split in five fractions. Three fractions were analysed to assess iron homogeneity in the sample via Inductively Coupled Plasma Optical Emission Spectrometry (ICP-OES) as reported earlier[48] and the remaining two fractions were sent to USDA-ARS Robert Holley Center for Agriculture and Health (Ithaca, NY, USA) to determine in vitro fractional bioaccessibility (IVFBA). […]
In vitro relative bioaccessibility (IVRBA) of iron from the 2 meals with the 3 iron compounds was calculated based on ferritin formation in the Caco-2 cells: Invitrorelativebioaccessibility(IVRBA)=ngferrittinoffortifiedsample/mgproteinoffortifiedsample/ngferrittinofsamplefortifiedwith[^54Fe]SO4/mgproteinofsamplefortifiedwith[^54Fe]SO4×100
In the in vitro study, the IVFBAs were also approximately log normally distributed and analysed by robust ANOVA. […]

[6] = PF < 40 µg/L, bouillon + inhibitory meal
[7] = PF ≥ 40 µg/L, bouillon + inhibitory meal

## O=P(O)(O)OC1C(OP(=O)(O)O)C(OP(=O)(O)O)C(OP(=O)(O)O)C(OP(=O)(O)O)C1OP(=O)(O)O.[Fe+3] (stereo not drawn) [monoferric phytate]
[1]; added to meals
  absorption: equal to the major pool of dietary inorganic iron
[1]
  bioavailability: highly bioavailable
[2]; humans
  iron absorption: absorbed at least as well as the common pool of non-heme dietary iron
[3]; rat study
  relative biological value of iron: equivalent to common iron fortificants such as ferrous ammonium sulfate
[3]; rats
  bioavailability: highly bioavailable

## Diphosphate sodium salt
[2]; bouillon, with the diphosphate added (4.4% without)
  fractional absorption: 6.4%
[2]; in vivo
  relative bioavailability: 13–23%

## O=P([O-])([O-])OP(=O)([O-])[O-].O=P([O-])([O-])OP(=O)([O-])[O-].O=P([O-])([O-])OP(=O)([O-])[O-].[Fe+3].[Fe+3].[Fe+3].[Fe+3] [FePP, Ferric pyrophosphate]
[2]; fortified bouillon cubes, mean PF of participants 9.4 µg/L
  RBV: 13%
[4]; PF < 40 µg/L
  factor (FIA, bouillon vs bouillon + inhibitory meal): 6.7
  factor (RBV, bouillon + inhibitory meal vs bouillon): 1.2
[4]; PF < 40 µg/L, bouillon
  FIA, geo-mean: 1.9%
  RBV, geo-mean: 5.8%
[4]; [6]
  FIA, geo-mean: 0.3%
  RBV, geo-mean: 7.1%
[4]; PF ≥ 40 µg/L
  factor (FIA, bouillon vs bouillon + inhibitory meal): 6.2
  factor (RBV, bouillon + inhibitory meal vs bouillon): 0.9
[4]; PF ≥ 40 µg/L, bouillon
  FIA, geo-mean: 1.7%
  RBV, geo-mean: 8.8%
[4]; [7]
  FIA, geo-mean: 0.3%
  RBV, geo-mean: 8.3%
[4]; all participants
  Factor by which FIA is lower in the inhibitory meal compared to bouillon: 5.9
  Factor by which RBV is higher in the inhibitory meal compared to bouillon: 1.2

## ferrous sulfate [FeSO4]
[5]
  In vitro fractional bioaccessibility (IVFBA), geo-mean: 9.6%
[4]; in vivo
  Factor by which FIA is lower in the inhibitory meal compared to bouillon: 6.8
